From patent US20250332173A1, “COMPOUNDS AND METHODS FOR MODULATING NUCLEIC ACID SPLICING” (REMIX THERAPEUTICS INC., priority 2021, published 2025) come the findings set out here.

Holding throughout (assay type): cell-based, human
The test system of one assay is MYB mRNA. Briefly: RT-qPCR splicing assay, MYB canonical junction (CJ) and alternative junction (AJ) mRNA. The following applies: Homo sapiens; for AC50: increase in MYB alternative junction (AJ) mRNA, read-out: MYB AJ AC50. Summed up: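 Read-out is one-step RT-qPCR on cell lysates detecting the exon-exon junction of each isoform, normalized to a housekeeping gene (PPIA in A673, GAPDH or GUSB in K562).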

Assay [1] concerns Target C. Kind of assay: RT-qPCR splicing assay panel, Target C canonical junction (CJ) mRNA. The following applies: Homo sapiens; Table 5 panel; canonical junction qPCR; compound concentration having 50% response in CJ decrease; read-out: Target C IC50 (decrease in CJ mRNA levels). Summed up: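 A673 or K562 cells were treated for 24 h at 37 °C with compound in 11-point 3-fold dilution (top 10 uM final, DMSO ≤0.25%). Lysates then went to one-step RT-qPCR measuring canonical-junction mRNA, normalized to GAPDH, GUSB or PPIA.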
In general terms: In qPCR the cycle at which signal appears reflects the starting amount.

For assay [2], the system named is Target C. Briefly: HiBiT protein abundance assay, Target C (Promega Nano-Glo HiBiT Lytic Detection System, knock-in K562 cell line). The following applies: Homo sapiens, K562, 24 h, HiBiT K562 cell line, 24 hours, top dose 10 μM; read-out: Effect on protein abundance, Target C (IC50 category). Summed up:
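Protein abundance was read by Nano-Glo HiBiT lytic luminescence after 24 h compound exposure (10-point, threefold series from 10 μM final) of HiBiT knock-in K562 cells. Parental K562 served as baseline; the 50%-abundance concentration was interpolated from a four-parameter logistic fit.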
Background: The HiBiT peptide binds its large partner to form an active luciferase.

[3] abbreviates: Table 5 panel, canonical junction qPCR, compound concentration having 50% response in CJ decrease, read-out: MYB IC50 (decrease in CJ mRNA levels).
Setting [4] is: decrease in MYB canonical junction (CJ) mRNA, RT-qPCR, read-out: MYB CJ IC50.

As a reminder, the pIC50 is the negative decadic logarithm of the IC50, by convention in mol/L. In general, AC50 refers to the midpoint of the concentration-response curve, whichever way the signal moves.

Each structure is given as a SMILES string. pIC50: −log10 of the molar value. Counter-ions that a name gives are not always drawn. Like-named read-outs stand apart in the source and are kept apart here.

For `Cc1cc(-c2ccc3c(=O)n(N4CCN(C)CC4)cnc3c2)cc2cn(C)nc12` [Compound 175], the negative-log IC50 (pIC50) was 5.00 to 6.00 in the assay with MYB mRNA (setting [3]), 5.00 to 6.00 with MYB mRNA (setting [4]), < 5.00 in the assay on Target C [1] and < 5.00 in the assay with Target C [2]. Moreover, the half-maximal activity concentration (AC50) with MYB mRNA (RT-qPCR) fell in the range of 1000 to 10000 nM.

On to `Cc1cn2nc(-c3ccc4c(=O)n(C5CCN(C)CC5)cnc4c3)cc(C)c2n1` [Compound 176], for which the pIC50 in the assay with MYB mRNA (setting [3]) was 6.00 to 7.00; in the assay with MYB mRNA (setting [4]), 5.00 to 6.00; in the assay on Target C [1], 5.00 to 6.00; with Target C [2] it was 5.00 to 6.00. For the same molecule, the AC50 in the assay on MYB mRNA (RT-qPCR) lay within 100 to 1000 nM.

Consider `CN1CCC(c2ccc3c(=O)n(-c4ccc5nn(C)cc5c4)cnc3c2)CC1` [Compound 177], for which the negative logarithm of the IC50 (pIC50) is < 5.00 with MYB mRNA (setting [3]), < 5.00 with MYB mRNA (setting [4]), 5.00 to 6.00 in the assay on Target C [1] and < 5.00 with Target C [2]. Also, in the assay on MYB mRNA (RT-qPCR), the AC50 was > 10000 nM.

Turning to `CN1CCN(c2ccc3c(=O)n(-c4ccc5cn(C)nc5c4)cnc3c2)CC1` [Compound 178], the negative-log IC50 (pIC50) with MYB mRNA (setting [3]), with MYB mRNA (setting [4]), in the assay with Target C [1] and in the assay on Target C [2] was < 5.00 throughout. Besides, the half-maximal activity concentration (AC50) with MYB mRNA (RT-qPCR) is > 10000 nM.

For the molecule `Cc1cc(-c2ccc3c(=O)n(C4CC(C)(C)NC(C)(C)C4)cnc3n2)cc2cn(C)nc12` [Compound 179], the negative logarithm of the IC50 (pIC50) in the assay with MYB mRNA (setting [3]), with MYB mRNA (setting [4]), in the assay with Target C [1] and with Target C [2] was < 5.00 each time. Moreover, in the assay on MYB mRNA (RT-qPCR), the AC50 was > 10000 nM.

As for `CN(c1ccc2c(=O)n(-c3ccc4nn(C)cc4c3)cnc2c1)C1CCNCC1` [Compound 180], the pIC50 with MYB mRNA (setting [3]) was < 5.00; in the assay on MYB mRNA (setting [4]) it was < 5.00; with Target C [1], 5.00 to 6.00; with Target C [2], < 5.00. In addition, the AC50 in the assay on MYB mRNA (RT-qPCR) is > 10000 nM.

On to `Cc1cn2nc(-c3ccc4c(=O)n(C5CCNCC5)cnc4c3)cc(C)c2n1` [Compound 181], for which the pIC50 in the assay with MYB mRNA (setting [3]) is 6.00 to 7.00; with MYB mRNA (setting [4]) it was 6.00 to 7.00; in the assay on Target C [1], 6.00 to 7.00; with Target C [2], > 7.00. Besides, in the assay on MYB mRNA (RT-qPCR), the AC50 lay in the range of 100 to 1000 nM.

Turning to `Cc1cc(-c2ccc3c(=O)n(C4CCNC5(CC5)C4)ncc3c2)cc2cn(C)nc12` (centres unmarked) [Compound 512], the pIC50 in the assay with MYB mRNA (setting [3]) is 5.00 to 6.00; in the assay with MYB mRNA (setting [4]) it was 5.00 to 6.00; with Target C [1] it was 5.00 to 6.00; in the assay with Target C [2], > 7.00. In addition, in the assay with MYB mRNA (RT-qPCR), the AC50 lay within 1000 to 10000 nM.

On to `Cc1nc2c(C)cc(-c3ccc4c(=O)n(C5CCNC6(CC6)C5)ncc4c3)cc2o1` (centres unmarked) [Compound 513], for which the pIC50 in the assay on MYB mRNA (setting [3]), in the assay on MYB mRNA (setting [4]), with Target C [1] and in the assay with Target C [2] was 5.00 to 6.00 in each case. Further, the AC50 with MYB mRNA (RT-qPCR) was 1000 to 10000 nM.

For `COc1cc(-c2ccc3c(=O)n(C4CCNCC4)ccc3c2)nn2cc(C)nc12` [Compound 514, 6-(8-methoxy-2-methyl-imidazo[1,2-b]pyridazin-6-yl)-2-(4-piperidyl) isoquinolin-1-one; hydrochloride], the pIC50 with MYB mRNA (setting [3]), in the assay on MYB mRNA (setting [4]), in the assay with Target C [1] and in the assay with Target C [2] was > 7.00 in each case. The concentration at half-maximal activity (AC50) with MYB mRNA (RT-qPCR) was < 100 nM.

As for `Cc1cn2nc(-c3ccc4c(=O)n(C5CCN(CCF)CC5)ncc4c3)cc(C)c2n1` [Compound 515], the pIC50 in the assay with MYB mRNA (setting [3]) was 5.00 to 6.00; in the assay on MYB mRNA (setting [4]) it was 6.00 to 7.00; in the assay with Target C [1], 5.00 to 6.00; in the assay on Target C [2] it was 5.00 to 6.00. Also, the half-maximal activity concentration (AC50) in the assay with MYB mRNA (RT-qPCR) was 1000 to 10000 nM.

On to `Cc1cn2nc(-c3ccc4c(=O)n(C5CCNCC5)ccc4c3)cc(C(=O)O)c2n1` [Compound 516, 2-methyl-6-[1-oxo-2-(4-piperidyl)-6-isoquinolyl]imidazo[1,2-b]pyridazine-8-carboxylic acid], for which the negative logarithm of the IC50 (pIC50) with MYB mRNA (setting [3]), with MYB mRNA (setting [4]), in the assay on Target C [1] and in the assay on Target C [2] was 5.00 to 6.00 throughout. For the same molecule, the AC50 with MYB mRNA (RT-qPCR) was 1000 to 10000 nM.

With `COC(=O)c1cc(-c2ccc3c(=O)n(C4CCNCC4)ccc3c2)nn2cc(C)nc12` [Compound 517, methyl 2-methyl-6-[1-oxo-2-(4-piperidyl)-6-isoquinolyl]imidazo[1,2-b]pyridazine-8-carboxylate], the negative-log IC50 (pIC50) was 6.00 to 7.00 with MYB mRNA (setting [3]), 6.00 to 7.00 in the assay with MYB mRNA (setting [4]), 5.00 to 6.00 with Target C [1] and 5.00 to 6.00 in the assay on Target C [2]. In addition, the AC50 with MYB mRNA (RT-qPCR) lay within 100 to 1000 nM.

`CNC(=O)c1cc(-c2ccc3c(=O)n(C4CCNCC4)ccc3c2)nn2cc(C)nc12` [Compound 518, N, 2-dimethyl-6-[1-oxo-2-(4-piperidyl)-6-isoquinolyl]imidazo[1,2-b]pyridazine-8-carboxamide]: the pIC50 in the assay on MYB mRNA (setting [3]) is 5.00 to 6.00; in the assay with MYB mRNA (setting [4]) it was < 5.00; in the assay on Target C [1], < 5.00; with Target C [2] it was 5.00 to 6.00. In addition, the AC50 with MYB mRNA (RT-qPCR) lay in the range of 1000 to 10000 nM.

Consider `Cc1cn2nc(-c3ccc4c(=O)n(C5CCNCC5)ccc4c3)cc(Oc3ccccc3)c2n1` [Compound 519, 6-(2-methyl-8-phenoxy-imidazo[1,2-b]pyridazin-6-yl)-2-(4-piperidyl)isoquinolin-1-one], for which the pIC50 in the assay on MYB mRNA (setting [3]), in the assay with MYB mRNA (setting [4]), in the assay with Target C [1] and in the assay on Target C [2] was > 7.00 throughout. Besides, the concentration at half-maximal activity (AC50) with MYB mRNA (RT-qPCR) is < 100 nM.

Turning to `Cc1cn2nc(-c3ccc4c(=O)n(C5CCNCC5)ccc4c3)cc(CC#N)c2n1` [Compound 520, 2-[2-methyl-6-[1-oxo-2-(4-piperidyl)-6-isoquinolyl]imidazo[1,2-b]pyridazin-8-yl]acetonitrile], the negative logarithm of the IC50 (pIC50) is 6.00 to 7.00 with MYB mRNA (setting [3]), 6.00 to 7.00 in the assay on MYB mRNA (setting [4]), 5.00 to 6.00 with Target C [1] and 5.00 to 6.00 in the assay with Target C [2]. The half-maximal activity concentration (AC50) with MYB mRNA (RT-qPCR) lay in the range of 100 to 1000 nM.

With `Cn1ccc2c(cnn2-c2ccc3c(=O)n(C4CCNCC4)ccc3c2)c1=O` [Compound 521], the pIC50 in the assay with MYB mRNA (setting [3]), in the assay on MYB mRNA (setting [4]), with Target C [1] and in the assay on Target C [2] was 5.00 to 6.00 each time. In the assay on MYB mRNA (RT-qPCR), the AC50 is 1000 to 10000 nM.

For the molecule `Cn1ccc2nn(-c3ccc4c(=O)n(C5CCNCC5)ccc4c3)cc2c1=O` [Compound 522, 6-{5-methyl-4-oxopyrazolo[4,3-c]pyridin-2-yl}-2-(piperidin-4-yl)isoquinolin-1-one], the negative-log IC50 (pIC50) in the assay with MYB mRNA (setting [3]), in the assay with MYB mRNA (setting [4]), with Target C [1] and with Target C [2] was < 5.00 throughout. The AC50 in the assay with MYB mRNA (RT-qPCR) was > 10000 nM.

For the molecule `Cc1cn2nc(-c3ccc4c(=O)n(C5CCNCC5)ccc4c3)cc(C(N)=O)c2n1` [Compound 523, 2-methyl-6-[1-oxo-2-(4-piperidyl)-6-isoquinolyl]imidazo[1,2-b]pyridazine-8-carboxamide], the negative-log IC50 (pIC50) with MYB mRNA (setting [3]) was 5.00 to 6.00; with MYB mRNA (setting [4]), 5.00 to 6.00; in the assay with Target C [1], < 5.00; in the assay on Target C [2] it was 5.00 to 6.00. Also, the AC50 with MYB mRNA (RT-qPCR) was in the range of 1000 to 10000 nM.

Turning to `CNC1CCN(c2ccc3cc(-c4cc(C)c5nc(C)cn5n4)ccn3c2=O)C1` (centres unmarked) [Compound 1158], the pIC50 with MYB mRNA (setting [3]) was 6.00 to 7.00; in the assay on MYB mRNA (setting [4]), 6.00 to 7.00; in the assay on Target C [1], 5.00 to 6.00. In addition, the AC50 in the assay on MYB mRNA (RT-qPCR) lay in the range of 100 to 1000 nM.

Consider `Cc1cn2nc(-c3ccn4c(=O)c(C5CCNCC5)ccc4c3)cc(C)c2n1` [Compound 1181], for which the negative-log IC50 (pIC50) with MYB mRNA (setting [3]), with MYB mRNA (setting [4]) and with Target C [1] was > 7.00 throughout. Also, the AC50 with MYB mRNA (RT-qPCR) is < 100 nM.

With `Cc1cn2nc(-c3ccn4c(=O)c(C5=CCNCC5)ncc4c3)cc(C)c2n1` [Compound 1182], the negative logarithm of the IC50 (pIC50) in the assay on MYB mRNA (setting [3]), in the assay on MYB mRNA (setting [4]) and with Target C [1] was 6.00 to 7.00 in each case. Besides, the AC50 in the assay on MYB mRNA (RT-qPCR) was 100 to 1000 nM.
